Reference: paper PMC9116259, “Discovery of new nicotinamides as apoptotic VEGFR-2 inhibitors: virtual screening, synthesis, anti-proliferative, immunomodulatory, ADMET, toxicity, and molecular dynamic simulation studies” (Journal of Enzyme Inhibition and Medicinal Chemistry, 2022)

How the values were obtained:
[1] = system: HCT-116 cells; assay: In vitro anti-proliferative activity, MTT test, HCT-116; type: cell-based; settings: Homo sapiens, read-out: In vitro cytotoxicity IC50 HCT-116
Procedure: (§1) The in vitro anti-proliferative effects of the four synthesised members were assessed against two cancer cell lines namely, hepatocellular carcinoma (HepG-2) and colorectal carcinoma (HCT-116) cell lines, by the standard MTT test[29]. HepG-2 and HCT-116 cell lines were precisely selected relying on their VEGF overexpression. […] The cytotoxicity results were established in Table 7.
(§2) The anti-proliferative activity of the four members was estimated by the MTT protocol as described[38–41] (Supplementary data).

[2] = molecular target: T1, VEGFR-2 (Homo sapiens, UniProt P35968); assay: Assessment of VEGFR-2 inhibition in HCT-116 cells; type: cell-based; settings: HCT-116 cells treated at concentrations equal to the cytotoxic ones; read-out: VEGFR-2 protein concentration (called VEGFR-2 inhibitory IC50 in text)
T1 construct: in vitro investigation against VEGFR-2 in HCT-116 cells; endogenous in cells; host or cells: HCT-116
Text: The designed congeners were, also, subject to an in vitro investigation against VEGFR-2 in HCT-116 cells.
The four selected members were further assessed to measure their inhibitory activities against the VEGFR-2 enzyme following the protocol shown in Supplementary data.

[3] = system: HepG-2 cells; assay: In vitro anti-proliferative activity, MTT test, HepG-2; type: cell-based; settings: for IC50: Homo sapiens, HepG2, MTT, HepG-2, read-out: In vitro cytotoxicity IC50 HepG-2
Procedure: as §1, §2

[4] = system: IL6; assay: In vitro immunomodulatory assay, IL6 (ELISA) in HCT-116 cells; type: cell-based; settings: C-6 (21.8 µM), D-1 (3.08 µM), 48 h
Procedure: (§3) Compounds C-6 and D-1 were further assayed for their immunomodulatory effect on HCT-116 cells. Two immunity-related markers were measured namely, human tumour necrosis factor alpha (TNF-α), and interleukin 6 (IL6). Dexamethasone, a potent inhibitor of both TNF-α and IL6, was used as a positive control.
(§4) The level of TNF-α and IL6 in cell culture supernatants was assessed by the ELISA technique according to the reported procedure[50]^,[51].

[5] = system: TNF-α; assay: In vitro immunomodulatory assay, TNF-α (ELISA) in HCT-116 cells; type: cell-based, human; settings: C-6 (21.8 µM), D-1 (3.08 µM), 48 h
Procedure: as §3, §4

[6] = system: HCT-116 cells; assay: Annexin-V/propidium iodide apoptosis assay in HCT-116 cells; type: cell-based; settings: HCT-116, 3.08 µM for 48 h
Procedure: Since the induction of apoptosis is a key determinant in the drug’s therapeutic outcome, the ability of the best cytotoxic member D-1 to induce apoptosis in colorectal carcinoma (HCT-116) cells was evaluated using Annexin-V/propidium iodide (PI) staining assay. […] The percentage of early and late apoptotic populations elevated from 0.7% and 1.73% in the untreated cells to 4.36% and 17.62% in the D-1 treated cells (Table 10 and Figures 11 and 12).
Annexin‐V‐FITC assay for compound D-1 on HCT-116 cells according to the reported procedure[15]^,[47–49] (Supplementary data).

[7] = system: Bcl-2; assay: Bcl-2 level in treated HCT-116 cells; type: cell-based
Procedure: (§5) Upregulation of the proapoptotic genes in addition to the downregulation of the anti-apoptotic ones, thus, confirmed the apoptotic behaviour of the designed compound.
(§6) Estimation of caspase-3 levels after treatment of cells with compound D-1 was performed according to the protocol described by M. Andersson et al.[42]. While Bax and Bcl-2 cellular levels were evaluated for D-1 in HCT-116 cells according to the reported protocol[43] (Supplementary data).

[8] = system: BAX; assay: BAX level in treated HCT-116 cells; type: cell-based
Procedure: as §5, §6

[9] = system: HCT-116 cells; assay: Cell cycle analysis by flow cytometry in HCT-116 cells; type: cell-based; settings: HCT-116, 3.08 µM for 48 h
Text: Aiming to obtain a further understanding of the mechanism that triggers the anticancer activity of D-1, the cell cycle progression was investigated using flow cytometry in HCT-116 cells.
Based on the protocol referred to by Léonce et al., the flow cytometric analysis for congener D-1 was done[19]^,[44–46] (Supplementary data).

[10] = system: caspase-8; assay: Caspase-8 concentration in treated HCT-116 cells; type: cell-based

T1 sequence (P35968 20-1356): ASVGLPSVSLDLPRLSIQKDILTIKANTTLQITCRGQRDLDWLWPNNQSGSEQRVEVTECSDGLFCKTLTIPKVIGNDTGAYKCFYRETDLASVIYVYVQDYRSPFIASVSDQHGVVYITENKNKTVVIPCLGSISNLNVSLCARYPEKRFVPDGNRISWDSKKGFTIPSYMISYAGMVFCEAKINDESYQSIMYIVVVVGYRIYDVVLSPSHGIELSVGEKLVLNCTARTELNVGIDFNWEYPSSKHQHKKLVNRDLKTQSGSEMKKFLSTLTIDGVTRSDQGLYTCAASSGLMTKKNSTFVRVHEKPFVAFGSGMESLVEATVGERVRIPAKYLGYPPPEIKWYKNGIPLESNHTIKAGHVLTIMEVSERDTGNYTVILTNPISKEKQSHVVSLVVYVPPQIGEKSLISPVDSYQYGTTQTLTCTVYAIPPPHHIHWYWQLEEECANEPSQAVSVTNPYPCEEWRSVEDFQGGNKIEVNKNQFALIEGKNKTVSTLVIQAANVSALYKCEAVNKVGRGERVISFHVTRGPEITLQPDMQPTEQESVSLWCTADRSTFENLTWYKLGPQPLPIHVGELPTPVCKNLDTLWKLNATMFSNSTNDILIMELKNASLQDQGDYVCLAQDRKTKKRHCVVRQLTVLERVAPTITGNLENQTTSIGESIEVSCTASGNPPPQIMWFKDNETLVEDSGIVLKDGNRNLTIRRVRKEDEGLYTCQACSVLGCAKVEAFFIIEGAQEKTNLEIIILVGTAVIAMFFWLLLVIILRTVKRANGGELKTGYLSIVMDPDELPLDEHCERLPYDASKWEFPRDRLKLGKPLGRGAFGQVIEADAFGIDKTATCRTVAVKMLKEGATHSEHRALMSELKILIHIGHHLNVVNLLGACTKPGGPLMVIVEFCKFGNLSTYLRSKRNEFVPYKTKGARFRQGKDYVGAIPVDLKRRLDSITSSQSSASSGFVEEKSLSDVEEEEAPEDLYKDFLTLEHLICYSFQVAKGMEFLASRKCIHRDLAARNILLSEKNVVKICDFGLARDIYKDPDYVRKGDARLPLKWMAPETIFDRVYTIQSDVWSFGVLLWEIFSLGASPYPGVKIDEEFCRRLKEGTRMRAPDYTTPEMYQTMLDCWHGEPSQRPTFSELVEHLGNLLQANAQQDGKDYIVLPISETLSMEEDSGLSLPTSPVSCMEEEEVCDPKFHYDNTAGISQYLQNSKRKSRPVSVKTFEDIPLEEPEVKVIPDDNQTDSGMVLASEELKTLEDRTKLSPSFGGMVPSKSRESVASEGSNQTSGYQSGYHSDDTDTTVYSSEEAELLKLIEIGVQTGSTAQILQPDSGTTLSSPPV

Row | Compound | IC50 [1] [µM] | IC50 [2] [µM] | IC50 [3] [µM] | % Inhibition of IL6 [4] [%] | % Inhibition of TNF-α [5] [%] | other results
1 | CC(=NNC(=O)c1cccnc1)c1ccc(NC(=O)c2cccnc2)cc1 [Compound A-1, N-(4–(1-(2-Nicotinoylhydrazineylidene)ethyl)phenyl)nicotinamide] | 34.9 ± 0.084 | 0.0221 | 18.07 ± 0.052 | – | – | –
2 | CC(=NNC(=O)c1ccccc1)c1ccc(NC(=O)c2cccnc2)cc1 [Compound B-1, N-(4–(1-(2-Benzoylhydrazineylidene)ethyl)phenyl)nicotinamide] | 19.6 ± 0.052 | 0.08 | 17.4 ± 0.05 | – | – | –
3 | CC(=NO)c1ccc(NC(=O)c2cccnc2)cc1 [Compound C-6, N-(4–(1-(Hydroxyimino)ethyl)phenyl)nicotinamide] | 21.8 ± 0.057 | 0.0157 | 15.9 ± 0.045 | 75.21 | 86.48 | –
4 | CC(=NNc1ccccc1)c1ccc(NC(=O)c2cccnc2)cc1 [Compound D-1, N-(4–(1-(2-Phenylhydrazineylidene)ethyl)phenyl)nicotinamide] | 3.08 ± 0.002 | 0.0231 | 4.09 ± 0.005 | 85.64 | 91.19 | Apoptosis Early ([6]; % given in Figure 11): 4.36%; Apoptosis Late ([6]; % given in Figure 11): 17.62%; Apoptosis Total ([6]; % given in Figure 11): 23.68%; Necrosis ([6]; % printed in Figure 11): 1.7%; decrease of Bcl-2 level to ([7]; HCT-116 cells, versus control): 0.23 fold; Bcl-2 ([7]; treated HCT-116 cells): 1.274 pg/mL; increase of BAX expression level ([8]; HCT-116 cells, versus control): 9.52 fold; BAX ([8]; treated HCT-116 cells): 401.79 pg/mL; %G0-G1 [9]: 41.26%; %G2-M [9]: 30.37%; %Pre-G1 [9]: 23.68%; %S [9]: 28.37%; activity against HepG-2, fold more than sorafenib ([3]; ratio of IC50 values versus sorafenib): about 1.2 fold; increase of caspase-8 level ([10]; HCT-116 cells, versus control): 10.41 fold; Caspase-8 ([10]; treated HCT-116 cells): 523.61 pg/mL
5 | C[C@@H]1C[C@H]2[C@@H]3CCC4=CC(=O)C=C[C@]4(C)[C@@]3(F)[C@@H](O)C[C@]2(C)[C@@]1(O)C(=O)CO [Dexamethasone, reference compound] | – | – | – | 93.15 | 82.47 | –
6 | CNC(=O)c1cc(Oc2ccc(NC(=O)Nc3ccc(Cl)c(C(F)(F)F)c3)cc2)ccn1 [Sorafenib, sorafenib, reference compound] | 7.28 ± 0.58 | – | 5.28 ± 0.21 | – | – | –
